Data as given in PMC10731006 (Heliyon, 2023).
Converted amounts (≈) assume the structure as drawn.

Experiments:
[1] = DPPH radical scavenging assay
[2] = ABTS radical scavenging assay

Cc1c(C)c2c(c(C)c1O)CCC(C)(C(=O)O)O2 (centres unmarked) [Trolox®, reference compound]
IC50 ± SD, DPPH [1]: 5.2 ± 0.3 µg/mL (≈ 20.8 µM)
IC50 ± SD, ABTS [2]: 2.7 ± 0.2 µg/mL (≈ 10.8 µM)
